Assays:
[1] = test system: LQTS cardiomyocytes; experiment: Dual optical recording of action potentials (ArcLight) and calcium handling (R-GECO1) in LQTS (Timothy syndrome) iPSC-derived cardiomyocytes; format: cell-based, human
Experimental: Plasmids of R-GECO1 (Addgene #32462) (Zhao et al., 2011) and ArcLight (Addgene #36857) (Jin et al., 2012) were used as template to amplify the cDNA using Phusion polymerase (Thermo Scientific) with primer sets that allowed us to add restriction enzyme site EcoRI and Kozak sequence before the start codon (without nuclear localization signal for R-GECO) and another site XhoI after the stop codon. These PCR products were subcloned into lentiviral vector that was prepared from LV-SD-Cre (Addgene, #12105, no longer available currently) digested with EcoRI and XhoI. XL-10 Gold competent cells (Agilent) transformed with these LV-SD vectors were inoculated at 24-30° C. The purified LV-SD vectors were transfected together with pCMV-dR8.2 dvpr and pCMV-VSV-G (Addgene #8455 & 8454) as follow: HEK293T cells that were plated at 5×10^5 cell/ml (2 ml per well) one day before were transfected with total 3.4 μg per well (ratio, LV-SD:dR8.2:VSV-G=8:8:1) and LF-2K (8.0 μl per well) in a 6-well plate. The next day the media was changed. Two days after transfection, culture media was harvested (again fresh media was added to transfected HEK 293T cells) and filtered using 0.45 μm PES filter (VWR) and then directly added to wells containing monolayer cardiomyocytes (at 2-3 weeks after inducing cardiac differentiation). No polybrene was used for viral infection. Seventy-two hours after transfection, the culture media was again collected and used as secondary infection. The next day media was changed to DF5 media for infected cardiomyocytes. In case of serum-free condition, Lenti-X concentrator (TaKaRa/Clontech) was used for media change, following the manufacture's instruction. Three to five days after the secondary infection, monolayer cardiomyocytes were transferred to 35 mm glass bottom culture dishes (7 mm diameter, No. 1.5 glass) coated with Geltrex. Nikon Ti-U epi-fluorescent microscope connected to EMCDD Digital Monochrome camera (Evolve, EVO-512-M-FW-16-AC, 512×512, Photometrics) was used with LED light source (Lumencore Spectra X 6 line LED system, with Chroma excitation mounted filters, ET395/25x, ET470/30, ET550/15x, ET640/30x;) with dichroic mirror and emission filter (dichroic mirror, D/F/Cy3/Cy5pc; emission, ET430/36 513/44 595/41 719/105) operated by MetaFlour (Molecular Devices, acquisition: exposure time, 20 ms; gain 3 (6×); transfer speed, 5 MHz, Image size: 512×512; binning, 1.0). Temperature of the bath solution was maintained at approximately 35° C. using a digital temperature controller (TC-344B, Warner Instruments) for the duration of the experiment. Nikon objective lens 40× (CF1 S Fluor, NA 0.90) for cell clusters and 60× (CFI Plan Apo Lambda H, NA 1.40) for single cells were used to capture two fluorescent signals as R-GECO1 (illumination control. 10 in 0-255, cy3) and ArcLight (150 in 0-255, FITC, 4 or 8 frames per sec). Isoproterenol (10 μM, Sigma Aldrich) and R-roscovitine (0.5 and 5 μM) were used for fluorescent imaging. The effect of serum concentration on the imaging using ArcLight and R-GECO1 in control and patient cells was not observed at approximately 35° C. […] Daily imaging in cardiomyocytes infected at day 15 was conducted for 18 days (day 23-40). Additional recordings were performed at day 90 to examine low long ArcLight and R-GECO1 signals are available.
A dual optical imaging system using two genetically encoded indicators, ArcLight for voltage and R-GECO1 for calcium transients, has been developed to efficiently phenotype the patient specific iPSC-derived cardiomyocytes derived from the serum containing protocol (Song, et al. Stem Cells Transl Med. 4(5):468-75 (2015)). […] Those phenotypes of Timothy syndrome patient iPSCs derived cardiomyocytes can be rescued by 5 μM Roscovitine treatment (FIGS. 2B-2C and FIG. 5).

[2] = test system: control (Ctrl) cardiomyocytes; experiment: Dual optical recording of action potentials (ArcLight) and calcium handling (R-GECO1) in control iPSC-derived cardiomyocytes; format: cell-based, human; settings: 5 μM, 10 min
Experimental: Plasmids of R-GECO1 (Addgene #32462) (Zhao et al., 2011) and ArcLight (Addgene #36857) (Jin et al., 2012) were used as template to amplify the cDNA using Phusion polymerase (Thermo Scientific) with primer sets that allowed us to add restriction enzyme site EcoRI and Kozak sequence before the start codon (without nuclear localization signal for R-GECO) and another site XhoI after the stop codon. These PCR products were subcloned into lentiviral vector that was prepared from LV-SD-Cre (Addgene, #12105, no longer available currently) digested with EcoRI and XhoI. XL-10 Gold competent cells (Agilent) transformed with these LV-SD vectors were inoculated at 24-30° C. The purified LV-SD vectors were transfected together with pCMV-dR8.2 dvpr and pCMV-VSV-G (Addgene #8455 & 8454) as follow: HEK293T cells that were plated at 5×10^5 cell/ml (2 ml per well) one day before were transfected with total 3.4 μg per well (ratio, LV-SD:dR8.2:VSV-G=8:8:1) and LF-2K (8.0 μl per well) in a 6-well plate. The next day the media was changed. Two days after transfection, culture media was harvested (again fresh media was added to transfected HEK 293T cells) and filtered using 0.45 μm PES filter (VWR) and then directly added to wells containing monolayer cardiomyocytes (at 2-3 weeks after inducing cardiac differentiation). No polybrene was used for viral infection. […]

[3] = test system: human iPSC lines; experiment: Monolayer cardiac differentiation of iPSCs into beating cardiomyocytes (serum-containing protocol, optimisation of GSK3 inhibitor dose and oxygen level); format: cell-based; settings: single use, 20% O2
Description: CHIR99021 (GSK3 inhibitor, #1386, Lot #6 & #7, Axon MedChem) and BIO (GSK3 inhibitor IX, #361550, Lot #D00148116, Calbiochem) (Minami et al., Cell reports 2, 1448-1460(2012)), IWP-3 (Wnt inhibitor, #SML0533, Lot #102m4613V, Sigma-Aldrich) resolved in Dimethyl Sulfoxide (DMSO, #276855, Sigma-Aldrich) were used for monolayer differentiation of iPSCs plated on Geltrex in 6-well plate or 10 cm dish. To prepare differentiating culture media, only one freeze and thaw cycle was confirmed for all aliquots of small compounds CHIR99021 and BIO and recombinant human growth factors. Twice freeze and thaw cycle was confirmed for IWP-3 aliquots. For the differentiation protocol with serum-containing media, DF20/5 media was used for cardiac differentiation and culture: DMEM/F-12 (with GlutaMax I) containing 20% or 5% Hyclone FBS, 1% non-essential amino acid, P.S. and 0.1 mM bME. Additional D-glucose was added to only DF20 as high glucose media (final 4.5 g/l) to enhance mesoderm differentiation from Day 1 to Day 4. For BIO and CHIR treatment, media was changed everyday. For IWP-3 treatment, media was changed every other day. DF5 media was used for the maintenance of cardiomyocytes after differentiation (Day 11˜) and media was changed every other day. Changed media using DF20 with small compounds required ˜3 ml per well in 6-well and ˜15 ml per 10 cm dish every other day since adding 2-2.5 ml of fresh media to a well of 6-well plates was not sufficient for high confluence of cells during differentiation into cardiomyocytes, resulting in lower efficiency of cardiac differentiation. […] For the differentiation protocol without serum containing media, Iscove's Modified Dulbecco Media (IMDM, Sigma-Aldrich) with B27 supplement (-minus insulin version, Life Technologies) was used for mesoderm differentiation (Day 1 to Day 3) and IMDM media with B27 (regular version, Life Technologies) was used for further differentiation and maintenance (Day 4˜). […] For the comparison between different serum free monolayer cardiac differentiation protocols (FIG. 3), RPMI1640 media (Sigma-Aldrich) and Activin A and BMP4 (R & D Systems), B27 supplement (both regular & minus insulin version, Life Technologies), human albumin (Sigma) and L-ascorbic acid 2-phosphate (Sigma-Aldrich) were used to make the corresponding differentiation media. In case of using DMEM/F-12 media for serum-free protocol, all cells died during early stage of cardiac differentiation (data not shown). All images and movies were taken in the tissue culture room using TS100F-LED microscope operated by Nikon NIS-Elements with objectives (4×, CFI Plan Fluor DL, NA 0.13; 10×, CFI Achromat ADL, NA0.25; 20×, CFI Achromat LWD ADL, NA 0.4, Nikon). Antibodies to sarcomeric alpha-actinin (clone #EA-53, Sigma-Aldrich) were used for immunocytochemistry of human cardiomyocytes (3-4 weeks later after cardiac differentiation). The cell size was analyzed blindly by E. Uche-Anya using Fiji software (FIG. 6). FACS analyses were performed in Columbia Center for Translational Immunology (CCTI) using a BD FACS Calibur using control and patient cardiomyocytes at day 19. Standard protocol for FACS was used first with 0.5% saponin (Sigma-Aldrich) for permeabilization at blocking step and next with sarcomeric alpha-actinin antibody (Sigma-Aldrich, clone #EA-53, 1/200 dilution) or cardiac troponin T (clone #13-11, Thermo Scientific, 1/500 dilution) and goat anti-mouse Alexa Fluor 488 secondary antibody (Life Technologies, 1/500) in FACS buffer (0.1% saponin, 2% FBS and 2 mM EDTA in Hanks buffer in HEPES, HBSS). The FACS data analyses were blindly performed by J. Feng. The identical cell samples were also used before fixation, for RNA/cDNA preparation and gene expression profiling using qPCR. Dimethyl Sulfoxide (DMSO) quality is critical to get reproducible results using small compounds, especially CHIR99021 (CHIR, #1386, lot #6 & #7, Axon MedChem). DMSO should be kept from ambient air. […]

[4] = monolayer of LQTS cardiomyocytes, serum-containing protocol (FIG. 5D)

For `CC[C@H](CO)Nc1nc(NCc2ccccc2)c2ncn(C(C)C)c2n1` [Roscovitine], the “phenotypes in action potentials, channel inactivation and calcium handling in Timothy syndrome cardiomyocytes” value [1] was “rescued the phenotypes”, the APD90 ([1]; 5 μM, 10 min, LQTS cardiomyocytes, serum-free condition (FIG. 5H)) was “positive effects” and the “number of spontaneous calcium transients” value ([1]; 5 μM, 10 min, LQTS cardiomyocytes, serum-free condition (FIG. 5I)) was “positive effects”. For the same compound, the “phenotypes of Timothy syndrome cardiomyocytes” value ([1]; 5 μM, cardiomyocytes derived using the serum-free protocol) was “rescued the phenotypes”, the “phenotypes (prolonged action potentials and abnormal calcium handling) of Timothy syndrome cardiomyocytes” value ([1]; 5 μM, cardiomyocytes from the serum-containing protocol) was “rescued” and the “irregular calcium handling and electrical activities” value ([1]; 5 μM, single LQTS CMs, before, during and after treatment (FIG. 2B)) was “prevented”. The “action potential (APD90, 90% from peak)” value ([1]; monolayer of LQTS cardiomyocytes, serum-containing protocol (FIG. 5C)) was “shortened”, the beating rate [1, 4] was “increased” and the “number of spontaneous calcium transients” value [1, 4] was “increased”. The prolonged action potentials ([1]; single LQTS cardiomyocytes, n=12, 4 lines from two patients (FIG. 2C)) was “rescued”, the APD90 ([2]; serum-free protocol (FIG. 5F)) was “no effect” and the “number of spontaneous calcium transients” value ([2]; serum-free protocol (FIG. 5G)) was “no effect”.

`Cc1c[nH]c(-c2cnc(NCCNc3ccc(C#N)cn3)nc2-c2ccc(Cl)cc2Cl)n1` [CHIR] was tested, and the beating cells ([3]; CHIR 5 μM) was “provided beating cardiomyocytes and Yes”, the “beating cells, where in the well” value ([3]; CHIR 5 μM) was “only around the center of well” and the beating cells ([3]; CHIR 10 μM) was “No”. The beating cells ([3]; CHIR 15 μM) was “No” and the beating cells ([3]; CHIR 20 μM) was “No”.

In the case of `O=C1Nc2cc(Br)ccc2/C1=C1/Nc2ccccc2/C1=N\O` [BIO, (2′ Z,3′ £)-6-Bromoindirubin-3′-oxime], the beating cells ([3]; BIO 1 μM) is reported as “provided beating cardiomyocytes and Yes”, the beating cells ([3]; BIO 2 μM) is reported as “Yes” and the “beating cells, where in the well” value ([3]; BIO 2 μM) is reported as “only around the edge of well”. The beating cells ([3]; BIO 4 μM) was “No” and the beating cells ([3]; BIO 8 μM) was “No”.
